According to patent US4329362A, “2-Amino-4-(substituted hydrazino)-6-oxo pyrimidines” (Burroughs Wellcome Co., priority 1977, dated 1982):
Structures can show the parent of a compound that is named as a salt.

Target: dihydropteroic acid biosynthesis (DHPB): hydroxymethyldihydropteridine pyrophosphokinase and dihydropteroate synthetase
Assay: coupled assay of dihydropteroic acid biosynthesis (kinase + synthetase), 14C H2pteroate formation
Assay type: biochemical
Conditions: coupled assay method; E. coli extract, 0-50% ammonium sulfate fraction; 14C in H2 pteroate from p-aminobenzoate-7-14C; read-out: Concentration in μM required to give 50% inhibition of DHPB
Text: Potential inhibitors of DHPB synthesis may be tested by investigating the inhibitory effect they impose in the enzymes responsible for the biosynthesis of dihydropteroic acid (DPtA), namely hydroxymethyldihydropteridine pyrophosphokinase (HMPPS), and dihydropteroate synthetase, hereinafter referred to as `synthetase`. In the following reaction equations the compounds are referred to by their abbreviated forms defined hereinbefore in the specification. [formula]
This reaction requires two enzymes since the starting substrates are H2 ptCH2 OH, ATP, and pAB, and the products are H2 pteroate and AMP.
The reactions are followed by determining the amount of ^14 C in H2 pteroate after separation from the substrate, p-aminobenzoate-7-^14 C, by paper chromatography.

| Structure (SMILES) | IC50 [µM] |
| --- | --- |
| COc1cc(C(=O)Cc2nn(C)c3nc(N)[nH]c(=O)c3c2=O)cc(OC)c1OC [7-Amino-3-(3,4,5-trimethoxyphenacyl)-1-methylpyrimido(4,5-c)pyridazine-4,5(1H, 6H)-dione] | 0.03 |
| COc1ccc(C(=O)Cc2nn(C)c3nc(N)[nH]c(=O)c3c2=O)cc1OC [7-Amino-3-(3,4-dimethoxyphenacyl)-1-methylpyrimido(4,5-c)pyridazine-4,5(1H,6H)-dione] | 0.15 |
| Cn1nc(Cc2ccccc2[N+](=O)[O-])c(=O)c2c(O)nc(N)nc21 [7-amino-1-methyl-3-(2-nitrobenzyl)-4-oxo-5-hydroxy-1,4-dihydropyrimido(4,5-c)pyridazine] | 12 |
| COc1cc(CC(C#N)c2nn(C)c3nc(N)nc(O)c3c2=O)cc(OC)c1OC (stereo not drawn) [7-amino-1-methyl-3-(α-cyano-3,4,5-trimethoxyphenethyl)-4-oxo-5-hydroxy-1,4-dihydropyrimido(4,5-c)pyridazine] | 11 |
| CCc1nn(C)c2nc(N)[nH]c(=O)c2c1=O [C2 H5] | 33 |
| Cn1nc(Cc2ccccc2)c(=O)c2c(O)nc(N)nc21 [CH2 C6 H5, 7-amino-1-methyl-3-benzyl-4-oxo-5-hydroxy-1,4-dihydropyrimido(4,5-c)pyridazine] | 11 |
| Cn1nc(CC(=O)c2ccccc2)c(=O)c2c(=O)[nH]c(N)nc21 [CH2 COC6 H5, 7-Amino-3-phenacyl-1-methylpyrimido(4,5-c)pyridazine-4,5(1H, 6H)-dione] | 0.76 |
| CC(=O)OCc1nn(C)c2nc(N)[nH]c(=O)c2c1=O [CH2 OCOCH3, 7-Amino-3-acetoxymethyl-1-mehylpyrimido(4,5-c)pyridazine-4,5(1H, 6H)-dione] | 15 |
| Cn1nc(CO)c(=O)c2c(=O)[nH]c(N)nc21 [CH2 OH, 7-Amino-3-hydroxymethyl-1-methylpyrimido(4,5-c)pyridazine-4,5(1H, 6H)-dione Sodium Salt] | 12 |
| Cc1nn(C)c2nc(N)[nH]c(=O)c2c1=O [CH3, 7-Amino-1,3-dimethylpyrimido(4,5-c)pyridazine-4,5-(1H, 6H)-dione] | 16 |
| CC(C(=O)O)c1nn(C)c2nc(N)[nH]c(=O)c2c1=O (stereo not shown) [CH(CH3)CO2 H, 7-Amino-3-(1-carboxyethyl)-1-methylpyrimido(4,5-c)pyridazine-4,5(1H, 6H)-dione Disodium Salt] | 3.7 |
| CCCCCCc1nn(C)c2nc(N)[nH]c(=O)c2c1=O [n-C6 H13] | 50 |

More lines, now with the values ahead:

| IC50 [µM] | Structure (SMILES) |
| --- | --- |
| 2.7 | COc1cc(OC)c(C(=O)Cc2nn(C)c3nc(N)[nH]c(=O)c3c2=O)c(OC)c1 [7-Amino-3-(2,4,6-trimethoxyphenacyl)-1-methylpyrimido(4,5-c)pyridazine-4,5(1H, 6H)-dione] |
| 0.14 | COc1ccc(C(=O)Cc2nn(C)c3nc(N)[nH]c(=O)c3c2=O)c(OC)c1 [7-Amino-3-(2,4-dimethoxyphenacyl)-1-methylpyrimido(4,5-c)pyridazine-4,5(1H,6H)-dione] |
| 0.06 | COc1ccc(OC)c(C(=O)Cc2nn(C)c3nc(N)[nH]c(=O)c3c2=O)c1 [7-Amino-3-(2,5-dimethoxyphenacyl)-1-methylpyrimido(4,5-c)pyridazine-4,5(1H,6H)-dione] |
| 0.22 | Cn1nc(CC(=O)c2cccc(O)c2)c(=O)c2c(=O)[nH]c(N)nc21 [7-Amino-3-(3-hydroxyphenacyl)-1-methylpyrimido(4,5-c)pyridazine-4,5(1H, 6H)-dione] |
| 0.77 | COc1cc(Cc2nn(C)c3nc(N)nc(O)c3c2=O)cc(OC)c1OC [7-amino-3-(3,4,5-trimethoxybenzyl)-1-methyl-4-oxo-5-hydroxy-1,4-dihydropyrimido(4,5-c)pyridazine] |
| 0.86 | COc1ccc(Cc2nn(C)c3nc(N)nc(O)c3c2=O)cc1OC [7-amino-3-(3,4-dimethoxybenzyl)-1-methyl-4-oxo-5-hydroxy-1,4-dihydropyrimido(4,5-c)pyridazine] |
| 15 | Cn1nc(-c2ccccc2)c(=O)c2c(O)nc(N)nc21 [C6 H5, 7-amino-1-methyl-3-phenyl-4-oxo-5-hydroxy-1,4-dihydropyrimido(4,5-c)pyridazine] |
| 16 | CCOC(=O)CCc1nn(C)c2nc(N)[nH]c(=O)c2c1=O [CH2 CH2 CO2 C2 H5] |
| 5.5 | Cn1nc(CCC(=O)O)c(=O)c2c(=O)[nH]c(N)nc21 [CH2 CH2 CO2 H] |
| 6.2 | CCOC(=O)Cc1nn(C)c2nc(N)nc(O)c2c1=O [CH2 CO2 C2 H5, 7-amino-1-methyl-3-(ethoxycarbonylmethyl)-4-oxo-5-hydroxy-1,4-dihydropyrimido(4,5-c)pyridazine] |
| 1.6 | CCOC(=O)C(C)c1nn(C)c2nc(N)[nH]c(=O)c2c1=O (stereo not shown) [CH(CH3)CO2 C2 H5, 7-Amino-3-(1-ethoxycarbonylethyl)-1-methylpyrimido(4,5-c)pyridazine-4,5(1H,6H)-dione] |
| 17 | CCOC(=O)C(OC)c1nn(C)c2nc(N)[nH]c(=O)c2c1=O (stereo not shown) [CH(OCH3)CO2 C2 H5] |
| 2.8 | COC(C(=O)O)c1nn(C)c2nc(N)nc(O)c2c1=O (stereo not shown) [CH(OCH3)CO2 H, 7-amino-1-methyl-3-((1-methoxy)carboxymethyl)-4-oxo-5-hydroxy-1,4-dihydropyrimido(4,5-c)pyridazine] |
| 21 | Cn1nc(C(=O)O)c(=O)c2c(=O)[nH]c(N)nc21 [CO2 H (disodium salt), 7-Amino-3-carboxy-1-methylpyrimido(4,5-c)pyridazine-4,5(1H, 6H)-dione Disodium Salt] |
| 30 | Cn1nc(-c2c[nH]c3ccccc23)c(=O)c2c(=O)[nH]c(N)nc21 [Example 3-Indolyl] |
| 20 | CC(C)Cc1nn(C)c2nc(N)[nH]c(=O)c2c1=O [iso-C4 H9] |
| 45 | CCCc1nn(C)c2nc(N)[nH]c(=O)c2c1=O [n-C3 H7] |

System: not listed separately
Assay: pKa values
Assay type: physicochemical
Conditions: read-out: pKa values (first value)

| pKa | Structure (SMILES) |
| --- | --- |
| 4.1 ± 0.1 | Cc1nn(C)c2nc(N)[nH]c(=O)c2c1=O [CH3, 7-Amino-1,3-dimethylpyrimido(4,5-c)pyridazine-4,5-(1H, 6H)-dione] |

Same assay, conditions: read-out: pKa values (second value)

| pKa | Structure (SMILES) |
| --- | --- |
| 8.6 ± 0.1 | Cc1nn(C)c2nc(N)[nH]c(=O)c2c1=O [CH3, 7-Amino-1,3-dimethylpyrimido(4,5-c)pyridazine-4,5-(1H, 6H)-dione] |
